Reference: ChEMBL document CHEMBL1201862, “PubChem BioAssay data set” (2004)
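A five-concentration, 48-hour dose response in 96-well plates underlies each endpoint, interpolated linearly between surrounding concentrations. GI50 = concentration required for 50% inhibition of growth.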 Calls of active or inactive are those of the source. No stated cut-off is given here; in the data, active = GI50 up to about 1.1 µM and inactive = higher.

Assays:
Assay in all cases: NCI-60 cell line screen, 48 h
HT-29 = test system: HT-29
M19-MEL = test system: M19-MEL
UACC-257 = test system: UACC-257
HOP-18 = test system: HOP-18
RXF 393 = test system: RXF 393
786-0 = test system: 786-0
RXF 631 = test system: RXF 631
CAKI-1 = test system: CAKI-1
LOX IMVI = test system: LOX IMVI
NCI-H226 = test system: NCI-H226
SK-OV-3 = test system: SK-OV-3
M14 = test system: M14
LXFL 529 = test system: LXFL 529
SK-MEL-28 = test system: SK-MEL-28
HCC 2998 = test system: HCC 2998
SR = test system: SR
XF498 = test system: XF498
EKVX = test system: EKVX
HL-60 = test system: HL-60
HOP-92 = test system: HOP-92
UO-31 = test system: UO-31
SW-620 = test system: SW-620
U-251 = test system: U-251
TK-10 = test system: TK-10
SF-539 = test system: SF-539
NCI-H522 = test system: NCI-H522
SF-268 = test system: SF-268
SF-295 = test system: SF-295
OVCAR-8 = test system: OVCAR-8
HCT-15 = test system: HCT-15
A549 = test system: A549
A498 = test system: A498
OVCAR-5 = test system: OVCAR-5
HCT-116 = test system: HCT-116
SN12C = test system: SN12C
KM12 = test system: KM12
OVCAR-4 = test system: OVCAR-4
DLD-1 = test system: DLD-1
OVCAR-3 = test system: OVCAR-3
K562 = test system: K562
ACHN = test system: ACHN
IGROV-1 = test system: IGROV-1
KM-20L2 = test system: KM-20L2
Malme-3M = test system: Malme-3M
SNB-19 = test system: SNB-19
HOP-62 = test system: HOP-62
SK-MEL-5 = test system: SK-MEL-5
RPMI-8226 = test system: RPMI-8226
MOLT-4 = test system: MOLT-4
SNB-78 = test system: SNB-78
SNB-75 = test system: SNB-75
DMS-273 = test system: DMS-273
NCI-H460 = test system: NCI-H460
NCI-H23 = test system: NCI-H23
UACC-62 = test system: UACC-62
DMS-114 = test system: DMS-114
COLO 205 = test system: COLO 205
CCRF-CEM = test system: CCRF-CEM
SK-MEL-2 = test system: SK-MEL-2

NCCSSCc1ccccc1CSSCCN
GI50 (HT-29): 97.1 µM (inactive)
GI50 (M19-MEL): 29.2 µM (inactive)
GI50 (UACC-257): > 100 µM (inactive)
GI50 (HOP-18): > 100 µM (inactive)
GI50 (RXF 393): > 100 µM (inactive)
GI50 (786-0): > 100 µM (inactive)
GI50 (RXF 631): > 100 µM (inactive)
GI50 (CAKI-1): > 100 µM (inactive)
GI50 (LOX IMVI): 14 µM (inactive)
GI50 (NCI-H226): > 100 µM (inactive)
GI50 (SK-OV-3): > 100 µM (inactive)
GI50 (M14): > 100 µM (inactive)
GI50 (LXFL 529): 50 µM (inactive)
GI50 (SK-MEL-28): > 100 µM (inactive)
GI50 (HCC 2998): 50.1 µM (inactive)
GI50 (SR): 41.7 µM (inactive)
GI50 (XF498): > 100 µM (inactive)
GI50 (EKVX): > 100 µM (inactive)
GI50 (HL-60): 8.02 µM (inactive)
GI50 (HOP-92): > 100 µM (inactive)
GI50 (UO-31): > 100 µM (inactive)
GI50 (SW-620): 20.4 µM (inactive)
GI50 (U-251): > 100 µM (inactive)
GI50 (TK-10): > 100 µM (inactive)
GI50 (SF-539): > 100 µM (inactive)
GI50 (NCI-H522): 14.1 µM (inactive)
GI50 (SF-268): > 100 µM (inactive)
GI50 (SF-295): > 100 µM (inactive)
GI50 (OVCAR-8): 66.2 µM (inactive)
GI50 (HCT-15): 38.5 µM
GI50 (A549): > 100 µM (inactive)
GI50 (A498): > 100 µM (inactive)
GI50 (OVCAR-5): > 100 µM (inactive)
GI50 (HCT-116): > 100 µM (inactive)
GI50 (SN12C): > 100 µM (inactive)
GI50 (KM12): > 100 µM (inactive)
GI50 (OVCAR-4): > 100 µM (inactive)
GI50 (DLD-1): 48.4 µM (inactive)
GI50 (OVCAR-3): > 100 µM (inactive)
GI50 (K562): 16.4 µM (inactive)
GI50 (ACHN): 8.65 µM (inactive)
GI50 (IGROV-1): > 100 µM (inactive)
GI50 (KM-20L2): > 100 µM (inactive)
GI50 (Malme-3M): 72.3 µM (inactive)
GI50 (SNB-19): > 100 µM (inactive)
GI50 (HOP-62): > 100 µM (inactive)
GI50 (SK-MEL-5): 57.9 µM (inactive)
GI50 (RPMI-8226): 67.8 µM (inactive)
GI50 (MOLT-4): 30.5 µM (inactive)
GI50 (SNB-78): > 100 µM (inactive)
GI50 (SNB-75): > 100 µM (inactive)
GI50 (DMS-273): 48.9 µM (inactive)
GI50 (NCI-H460): > 100 µM (inactive)
GI50 (NCI-H23): > 100 µM (inactive)
GI50 (UACC-62): > 100 µM (inactive)
GI50 (DMS-114): > 100 µM (inactive)
GI50 (COLO 205): > 100 µM (inactive)

COc1cc2c(cc1O)[C@H](C)C(c1ccc(Cl)cc1)O2 (some centres undefined)
GI50 (HT-29): 30.9 µM (inactive)
GI50 (M19-MEL): 15.8 µM (inactive)
GI50 (UACC-257): 19.8 µM (inactive)
GI50 (HOP-18): 36.2 µM (inactive)
GI50 (RXF 393): 24.6 µM (inactive)
GI50 (786-0): 17.1 µM (inactive)
GI50 (RXF 631): 26 µM (inactive)
GI50 (CAKI-1): 11.6 µM (inactive)
GI50 (LOX IMVI): 16 µM (inactive)
GI50 (NCI-H226): 24.9 µM (inactive)
GI50 (SK-OV-3): 23.3 µM (inactive)
GI50 (M14): 22.2 µM (inactive)
GI50 (LXFL 529): 17.2 µM (inactive)
GI50 (SK-MEL-28): 28.6 µM (inactive)
GI50 (HCC 2998): 18.5 µM (inactive)
GI50 (CCRF-CEM): 14.5 µM (inactive)
GI50 (XF498): 15.5 µM (inactive)
GI50 (EKVX): 23 µM (inactive)
GI50 (HL-60): 14.2 µM (inactive)
GI50 (HOP-92): 17.3 µM (inactive)
GI50 (UO-31): 24.4 µM (inactive)
GI50 (SW-620): 17.4 µM (inactive)
GI50 (U-251): 19.1 µM (inactive)
GI50 (TK-10): 24.4 µM (inactive)
GI50 (SF-539): 57.9 µM (inactive)
GI50 (NCI-H522): 13.3 µM (inactive)
GI50 (SF-268): 20.7 µM (inactive)
GI50 (SF-295): 31 µM (inactive)
GI50 (OVCAR-8): > 10 µM (inactive)
GI50 (HCT-15): 13.1 µM
GI50 (A549): 24.9 µM (inactive)
GI50 (A498): 11.9 µM (inactive)
GI50 (OVCAR-5): 25.4 µM (inactive)
GI50 (HCT-116): 16.1 µM (inactive)
GI50 (KM12): 25.2 µM (inactive)
GI50 (OVCAR-4): 32.1 µM (inactive)
GI50 (DLD-1): 24.8 µM (inactive)
GI50 (OVCAR-3): 37.4 µM (inactive)
GI50 (SK-MEL-2): 21.3 µM (inactive)
GI50 (K562): 18.3 µM (inactive)
GI50 (ACHN): 14.1 µM (inactive)
GI50 (IGROV-1): 22.5 µM (inactive)
GI50 (KM-20L2): 23.1 µM (inactive)
GI50 (Malme-3M): 24.6 µM (inactive)
GI50 (SNB-19): 74.8 µM (inactive)
GI50 (HOP-62): 22.6 µM (inactive)
GI50 (SK-MEL-5): 16.3 µM (inactive)
GI50 (RPMI-8226): 6.34 µM (inactive)
GI50 (MOLT-4): 15.3 µM (inactive)
GI50 (SNB-78): 21.3 µM (inactive)
GI50 (SNB-75): 2.72 µM (inactive)
GI50 (DMS-273): 16.5 µM (inactive)
GI50 (NCI-H460): 17.9 µM (inactive)
GI50 (NCI-H23): 21 µM (inactive)
GI50 (UACC-62): 21.2 µM (inactive)
GI50 (DMS-114): 13.9 µM (inactive)
GI50 (COLO 205): 27.2 µM (inactive)
